From ChEMBL document CHEMBL4808212 (Bioorg Med Chem Lett, 2021)

Columns and labels:
[1] = molecular target: Replicase polyprotein 1ab (Severe acute respiratory syndrome coronavirus 2, UniProt P0DTD1); experiment: Inhibition of SARS-CoV-2 3CLpro preincubated for 30 mins followed by addition of (Dabcyl)KTSAVLQSGFRKM(Glu) peptide substrate and measured after […] by FRET assay
[2] = Inhibition of SARS coronavirus 1 3CL protease using Dabcyl-KTSAVLQ/SGFRKME-Edans as substrate measured by FRET assay; set-up: species or system Severe acute respiratory syndrome-related coronavirus
[3] = Binding affinity to SARS coronavirus 1 3CL protease using Dabcyl-KTSAVLQ/SGFRKME-Edans as substrate measured by FRET assay; set-up: species or system Severe acute respiratory syndrome-related coronavirus
[4] = Inhibition of SARS coronavirus 1 3CL protease expressed in Escherichia coli measured by HPLC method; set-up: species or system Severe acute respiratory syndrome-related coronavirus

CCOC(=O)/C=C/[C@H](C[C@@H]1CCNC1=O)NC(=O)[C@H](CC(C)C)NC(=O)[C@@H](NC(=O)OCc1ccccc1)C(C)C
IC50 [1]: 286 nM

CC(C)C[C@H](NC(=O)OCc1ccccc1)C(=O)N[C@@H](CC(C)C)C(=O)N[C@@H](C[C@@H]1CCNC1=O)C(=O)C(=O)NC(C)C
IC50 [1]: 65 nM
IC50 [2]: 7 nM

O=C[C@H](C[C@@H]1CCNC1=O)NC(=O)[C@H](Cc1cccc(F)c1)NC(=O)c1cc2ccccc2[nH]1
IC50 [1]: 23 nM

CC(C)C[C@H](NC(=O)OCc1ccccc1)C(=O)N[C@@H](C[C@@H]1CCNC1=O)C(=O)c1nc2ccccc2s1
IC50 [1]: > 10000 nM

C[C@@H](OC(C)(C)C)[C@H](NC(=O)OCc1ccccc1)C(=O)N[C@@H](CC1CCCCC1)C(=O)N[C@H](C=O)C[C@@H]1CCNC1=O
Ki [3]: 53 nM

COc1cccc2[nH]c(C(=O)N[C@@H](CC(C)C)C(=O)N[C@@H](C[C@@H]3CCNC3=O)C(=O)CO)cc12 [PF-00835231]
IC50 [4]: 4 nM
